Measurements taken from patent publication US12358932B2, “Chemical compounds” (BORAH, INC., priority 2019, dated 2025).

How the values were obtained:
JAK = test: Biochemical Kinase Assay Protocol (JAK); conditions: for Activity Note: JAK: compound list, + = noted target activity, number of * = preference; for JAK activity: compared to compounds of the disclosure
Method: Biochemical Kinase Assay Protocol (JAK, TrkA, Syk, Tyk2)
Reagent: Base Reaction buffer; 20 mM Hepes (pH 7.5), 10 mM MgCl2, 1 mM EGTA, 0.02% Brij™ 35, 0.02 mg/ml BSA, 0.1 mM Na3VO4, 2 mM DTT, 1% DMSO, where required cofactors are added individually to each kinase reaction.
• 1. Prepare indicated substrate in freshly prepared Base Reaction Buffer • 2. Deliver any required cofactors to the substrate solution above • 3. Deliver indicated kinase (JAK or TrkA) into the substrate solution and gently mix • 4. Deliver compounds in DMSO into the kinase reaction mixture by Acoustic technology (Echo550; nanoliter range), incubate for 20 minutes at room temperature • 5. Deliver 33P-ATP into the reaction mixture to initiate the reaction. • 6. Incubate kinase reaction for 2 hours at room temperature • 7. Reactions are spotted onto P81 ion exchange paper • 8. Detect kinase activity by filter-binding method. PDE4B Phosphodiesterase Assay

Recombinant human PDE4B = target: T1, Recombinant human PDE4B (Homo sapiens, UniProt Q07343); test: PDE4B Phosphodiesterase Assay; assay type: biochemical; conditions: compared to compounds of the disclosure
T1 construct: aa 305-end; GST (N); made in house; host or cells: Sf9 insect cells (baculovirus)
How it was run: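 N-terminal GST-tagged human PDE4B (aa 305-end, Sf9-expressed) preincubated 10 min with compound in 10 mM Tris-HCl pH 7.5, 5 mM MgCl2, 0.01% Brij 35, 1 mM DTT, 1% DMSO, then 1 h at room temperature with 1 μM cAMP. AMP detected by Transcreener fluorescence polarization (Ex/Em 620/688), converted to nM product; % activity relative to DMSO.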

T1 sequence (Q07343 305-736 limits assumed): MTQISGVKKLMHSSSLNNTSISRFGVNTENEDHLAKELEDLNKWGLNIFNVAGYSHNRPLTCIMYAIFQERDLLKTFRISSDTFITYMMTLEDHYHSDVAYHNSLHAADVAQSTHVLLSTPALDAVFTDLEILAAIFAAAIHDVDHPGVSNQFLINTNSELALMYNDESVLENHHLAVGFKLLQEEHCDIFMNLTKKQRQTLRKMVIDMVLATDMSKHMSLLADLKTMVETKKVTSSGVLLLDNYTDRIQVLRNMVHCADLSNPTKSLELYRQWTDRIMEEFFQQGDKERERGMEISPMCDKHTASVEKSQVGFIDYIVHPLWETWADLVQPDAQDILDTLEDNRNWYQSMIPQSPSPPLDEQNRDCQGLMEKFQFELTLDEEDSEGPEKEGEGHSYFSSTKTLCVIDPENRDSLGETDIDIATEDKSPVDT

Row | SMILES | Activity Note: JAK (JAK) | JAK activity (JAK) | PDE4 activity (Recombinant human PDE4B)
1 | CCc1cc(Nc2ncc(Cl)c(NC3CCCC3)n2)cc2c1B(O)OC2 [5-((5-chloro-4-(cyclopentylamino)pyrimidin-2-yl)amino)-7-ethylbenzo[c][1,2]oxaborol-1(3H)-ol] | JAK+*** | – | –
2 | Cc1cc(Nc2ncc(Cl)c(NC3CCCC3)n2)cc2c1B(O)OC2 [5-((5-chloro-4-(cyclopentylamino)pyrimidin-2-yl)amino)-7-methylbenzo[c][1,2]oxaborol-1(3H)-ol] | JAK+*** | – | –
3 | CCC(CC)Nc1nc(Nc2cc3c(c(C(F)(F)F)c2)B(O)OC3)ncc1C [5-((5-methyl-4-(pentan-3-ylamino)pyrimidin-2-yl)amino)-7-(trifluoromethyl)benzo[c][1,2]oxaborol-1(3H)-ol] | JAK+*** | – | –
4 | Cc1cnc(Nc2cc3c(c(C(F)(F)F)c2)B(O)OC3)nc1Nc1ccccc1 [5-((5-methyl-4-(phenylamino)pyrimidin-2-yl)amino)-7-(trifluoromethyl)benzo[c][1,2]oxaborol-1(3H)-ol] | JAK+*** | – | –
5 | Cc1cnc(Nc2ccc3c(c2)B(O)OC3)nc1N[C@H]1CC[C@H](CO)CC1 [6-((4-(((1r,4r)-4-(hydroxymethyl)cyclohexyl)amino)-5-methylpyrimidin-2-yl)amino)benzo[c][1,2]oxaborol-1(3H)-ol] | JAK+* | – | –
6 | Cc1cnc(Nc2ccc3c(c2)B(O)OC3)nc1NC1CCCCC1 [6-((4-(cyclohexylamino)-5-methylpyrimidin-2-yl)amino)benzo[c][1,2]oxaborol-1(3H)-ol] | JAK+* | – | –
7 | Cc1cnc(Nc2ccc3c(c2)CCOB3O)nc1NC1CCCC1 [6-((4-(cyclopentylamino)-5-methylpyrimidin-2-yl)amino)-3,4-dihydro-1H-benzo[c][1,2]oxaborinin-1-ol] | JAK+*** | – | –
8 | Cc1cnc(Nc2cc(C)c3c(c2)CCOB3O)nc1NC1CCCC1 [6-((4-(cyclopentylamino)-5-methylpyrimidin-2-yl)amino)-8-methyl-3,4-dihydro-1H-benzo[c][1,2]oxaborinin-1-ol] | JAK+* | – | –
9 | CCCNc1nc(Nc2ccc3c(c2)B(O)OC3)ncc1I [6-((5-iodo-4-(propylamino)pyrimidin-2-yl)amino)benzo[c][1,2]oxaborol-1(3H)-ol] | JAK+* | – | –
10 | Cc1cnc(Nc2ccc3c(c2)B(O)OC3)nc1NC1CCN(C)CC1 [6-((5-methyl-4-((1-methylpiperidin-4-yl)amino)pyrimidin-2-yl)amino)benzo[c][1,2]oxaborol-1(3H)-ol] | JAK+* | – | –
11 | Cc1cnc(Nc2ccc3c(c2)B(O)OC3)nc1Nc1cccc(S(C)(=O)=O)c1 [6-((5-methyl-4-((3-(methylsulfonyl)phenyl)amino)pyrimidin-2-yl)amino)benzo[c][1,2]oxaborol-1(3H)-ol] | JAK+* | – | –
12 | Cc1cnc(Nc2ccc3c(c2)B(O)OC3)nc1NC1CCC(C)CC1 (stereo not shown) [6-((5-methyl-4-((4-methylcyclohexyl)amino)pyrimidin-2-yl)amino)benzo[c][1,2]oxaborol-1(3H)-ol] | JAK+** | – | –
13 | CCC(CC)Nc1nc(Nc2ccc3c(c2)B(O)OC3)ncc1C [6-((5-methyl-4-(pentan-3-ylamino)pyrimidin-2-yl)amino)benzo[c][1,2]oxaborol-1(3H)-ol] | JAK+* | – | –
14 | CCC(CC)Nc1nc(Nc2cc(Cl)c3c(c2)C(C)(C)OB3O)ncc1C [7-chloro-3,3-dimethyl-5-((5-methyl-4-(pentan-3-ylamino)pyrimidin-2-yl)amino)benzo[c][1,2]oxaborol-1(3H)-ol] | JAK+*** | – | –
15 | Cc1cnc(Nc2cc(Cl)c3c(c2)C(C)(C)OB3O)nc1Nc1ccccc1 [7-chloro-3,3-dimethyl-5-((5-methyl-4-(phenylamino)pyrimidin-2-yl)amino)benzo[c][1,2]oxaborol-1(3H)-ol] | JAK+*** | – | –
16 | CC1(C)OB(O)c2c(Cl)cc(Nc3ncc(Cl)c(NC4CCCC4)n3)cc21 [7-chloro-5-((5-chloro-4-(cyclopentylamino)pyrimidin-2-yl)amino)-3,3-dimethylbenzo[c][1,2]oxaborol-1(3H)-ol] | JAK+*** | – | –
17 | OB1OCc2cc(Nc3ncc(Cl)c(NC4CCCC4)n3)cc(Cl)c21 [7-chloro-5-((5-chloro-4-(cyclopentylamino)pyrimidin-2-yl)amino)benzo[c][1,2]oxaborol-1(3H)-ol] | JAK+*** | – | –
18 | CCC(CC)Nc1nc(Nc2cc(Cl)c3c(c2)COB3O)ncc1C [7-chloro-5-((5-methyl-4-(pentan-3-ylamino)pyrimidin-2-yl)amino)benzo[c][1,2]oxaborol-1(3H)-ol] | JAK+*** | – | –
19 | Cc1cnc(Nc2cc(Cl)c3c(c2)COB3O)nc1Nc1ccccc1 [7-chloro-5-((5-methyl-4-(phenylamino)pyrimidin-2-yl)amino)benzo[c][1,2]oxaborol-1(3H)-ol] | JAK+*** | – | –
20 | CCc1cc(Nc2ncc(C)c(NC(CC)CC)n2)cc2c1B(O)OC2 [7-ethyl-5-((5-methyl-4-(pentan-3-ylamino)pyrimidin-2-yl)amino)benzo[c][1,2]oxaborol-1(3H)-ol] | JAK+*** | – | –
21 | CCc1cc(Nc2ncc(C)c(Nc3ccccc3)n2)cc2c1B(O)OC2 [7-ethyl-5-((5-methyl-4-(phenylamino)pyrimidin-2-yl)amino)benzo[c][1,2]oxaborol-1(3H)-ol] | JAK+*** | – | –
22 | Cc1cnc(Nc2ccc3c(c2F)B(O)OC3)nc1Nc1cccc(S(C)(=O)=O)c1 [7-fluoro-6-((5-methyl-4-((3-(methylsulfonyl)phenyl)amino)pyrimidin-2-yl)amino)benzo[c][1,2]oxaborol-1(3H)-ol] | JAK+* | – | –
23 | COc1cc(Nc2ncc(C)c(SC)n2)cc2c1B(O)OC2 [7-methoxy-5-((5-methyl-4-(methylthio)pyrimidin-2-yl)amino)benzo[c][1,2]oxaborol-1(3H)-ol] | JAK+** | – | –
24 | CCC(CC)Nc1nc(Nc2cc(C)c3c(c2)COB3O)ncc1C [7-methyl-5-((5-methyl-4-(pentan-3-ylamino)pyrimidin-2-yl)amino)benzo[c][1,2]oxaborol-1(3H)-ol] | JAK+*** | – | –
25 | Cc1cnc(Nc2cc(C)c3c(c2)COB3O)nc1Nc1ccccc1 [7-methyl-5-((5-methyl-4-(phenylamino)pyrimidin-2-yl)amino)benzo[c][1,2]oxaborol-1(3H)-ol] | JAK+*** | – | –
26 | Cc1cnc(Nc2ccc3c(c2C)B(O)OC3)nc1Nc1cccc(S(C)(=O)=O)c1 [7-methyl-6-((5-methyl-4-((3-(methylsulfonyl)phenyl)amino)pyrimidin-2-yl)amino)benzo[c][1,2]oxaborol-1(3H)-ol] | JAK+* | – | –
27 | Cc1cnc(N(C)c2ccc3c(c2)COB3O)nc1OC1CCCCC1 [A, 5-((4-(cyclohexyloxy)-5-methylpyrimidin-2-yl)(methyl)amino)benzo[c][1,2]oxaborol-1(3H)-ol, reference compound] | – | no JAK activity or significantly decreased JAK activity | diminish in PDE4 activity
28 | Cc1cnc(N(C)c2ccc3c(c2)COB3O)nc1NC1CCCC1 [B, 5-((4-(cyclopentylamino)-5-methylpyrimidin-2-yl)(methyl)amino)benzo[c][1,2]oxaborol-1(3H)-ol, reference compound] | – | no JAK activity or significantly decreased JAK activity | diminish in PDE4 activity
29 | CCc1cc(N(c2ncc(C)c(NC(CC)CC)n2)S(=O)(=O)C(F)(F)F)cc2c1B(O)OC2 [N-(7-ethyl-1-hydroxy-1,3-dihydrobenzo[c][1,2]oxaborol-5-yl)-1,1,1-trifluoro-N-(5-methyl-4-(pentan-3-ylamino)pyrimidin-2-yl)methanesulfonamide] | JAK+* | – | –
